Measured values published in PMC4084891, “Decreased Phenotypic Susceptibility to Etravirine in Patients with Predicted Genotypic Sensitivity” (PLoS ONE, 2014).
Like-named read-outs stand apart in the source and are kept apart here.

What was measured:
[1] = molecular target: HIV-1 reverse transcriptase, recovered from plasma of HIV-1 infected patients; set-up: method as in PMID 23364785; settings: cited from earlier work
[2] = test system: HIV-1 reverse transcriptase, recovered from plasma of HIV-1 infected patients; experiment: ExaVir Drug susceptibility assay (RT-based phenotypic), RT recovered from patient plasma; assay type: biochemical
Protocol: Lysates containing intraviral RT were recovered from plasma using ExaVir Load, version 3 (Cavidi, Uppsala, Sweden). Briefly, virions from up to 1 ml plasma were bound to an ion exchange gel, washed, and the RT was extracted by lysing the purified virions. The RT was used to catalyse the incorporation of bromodeoxyuridine triphosphate (BrdUTP) into DNA via a poly-rA (ribodenylic acid template) plate. The amount of BrdU monophosphate (BrdUMP) incorporated into DNA was detected with an alkaline phosphatase (Ap) conjugated anti-BrdU monoclonal antibody. The Ap substrate para-nitrophenyl-diphosphate was used for colorimetric detection. […] The RT activity at each drug concentration was recalculated into percentage of RT activity in the absence of drug. The IC50 values were calculated using the median effect equation [23]. […] In the present study, two reference recombinant RTs, BH10-wild-type and its mutant form L100I, were analysed together with patient samples in each assay. The results of the phenotypic tests were evaluated independently by two persons (E.A, C.FR.K).

Cc1cc(C#N)cc(C)c1Oc1nc(Nc2ccc(C#N)cc2)nc(N)c1Br [ETR, 4-[[6-amino-5-bromo-2[(4-cyanophenyl)amino]-4-pyrimidinyl]oxy]-3.5-dimethylbenzonitrile]
IC50 ([1]; read-out: IC50 for ETR, mean ± SD (reproducibility analysis, first value), not influenced by RT amount within 40–828 fg/ml RT): 1.6 ± 0.03 µM | IC50 ([1]; read-out: IC50 for ETR, mean ± SD (reproducibility analysis, second value), not influenced by RT amount within 40–828 fg/ml RT): 3.1 ± 0.04 µM | IC50 ([1]; read-out: IC50 for RT activity in the presence of ETR, mean ±SD, treatment-naïve patients and reference recombinant RTs): 2.5 ± 1 µM | result of phenotypic assay ([2]; patient 4, K103R mutation, NNRTI-naïve): sensitive | result of phenotypic assay ([2]; patients/samples 7, 11b, 15, 9a and 12, NNRTI stopped earlier): No phenotypic resistance | IC50 ([2]; read-out: IC50 to ETR, mean ±SD, ten samples considered sensitive (3a, 4, 7, 9a, 11b, 12, 15, 16, 17, 18)): 3.1 ± 1.3 µM | IC50 ([2]; read-out: IC50 to ETR, range, six samples with decreased susceptibility (1, 9b, 10, 11a, 19, 20)): 6.4 to 13.6 µM | IC50 ([2]; read-out: IC50 to ETR, patient sample 1): 11.8 µM | IC50 ([2]; read-out: IC50 to ETR, patient sample 2): > 100 µM | IC50 ([2]; read-out: IC50 to ETR, patient sample 3b): > 100 µM | IC50 ([2]; read-out: IC50 to ETR, patient sample 6): > 100 µM | IC50 ([2]; read-out: IC50 to ETR, patient sample 8a): > 100 µM | IC50 ([2]; read-out: IC50 to ETR, patient sample 8b): > 100 µM | IC50 ([2]; read-out: IC50 to ETR, patient sample 9b): 9.2 µM | IC50 ([2]; read-out: IC50 to ETR, patient sample 10): 13.6 µM | IC50 ([2]; read-out: IC50 to ETR, patient sample 11a): 7.3 µM | IC50 ([2]; read-out: IC50 to ETR, patient sample 19): 6.4 µM | IC50 ([2]; read-out: IC50 to ETR, patient sample 20): 7.2 µM
